Measurements reported in US20080312283A1, “Use of Hydroxylamine Derivates for Inhibiting Vitrectomy-Induced Cataracts” (Othera Pharmaceuticals, Inc., priority 2005, published 2008).

Key:
lens epithelial cells = conditions: Mitchell et al. 1991; Krishna et al. 1991; cited from earlier work
cataract = conditions: Zigler et al., U.S. Pat. No. 6,001,853; cited from earlier work
[1] = Ocular tissue, urine and plasma levels of total radioactivity following a single intravitreal dose; type: in vivo, New Zealand White rabbits
Description: A randomized, single treatment study, in nine groups of three NZW rabbits per group, was conducted. Animals were assigned to study groups by a computerized randomization program designed to achieve similar body weights per group. Naïve animals received an intra-vitreous injection of the test article at a nominal dose of 2.0 mg*eq [^14C]Tempol-H (1,4-dihydroxy-2,2,6,6-tetramethylpiperidine(2,4,6-^14C3)). A dose of 0.1 mL, containing 2.18 μCi was administered into both eyes. At nine specified time points post dose (1, 30, 60 minutes, 2, 4, 8, 24, 48, and 120 hours), three animals per group were euthanized and terminal samples were collected. The following tissues were harvested from each eye of all animals: aqueous humor, cornea, iris/ciliary body complex, vitreous humor, lens, retina-choroid plexus and optic nerve. Blood was collected from the marginal ear vein of all rabbits into tubes containing K3EDTA; urine was cage-collected daily from three animals up to 120 hour post dosing. Total radioactivity was determined in all samples by liquid scintillation counting.

[2] = system: retinal S-antigen-induced experimental autoimmune uveoretinitis (EAU); conditions: systemic injection, rat model (Zamir et al. 1999); cited from earlier work
[3] = New Zealand White, rabbit, in vivo, 8 h

Row | Compound | protection of lens epithelial cells from oxidative damage (lens epithelial cells) | anti-cataractogenic effect compared with the corresponding nitroxide (cataract) | concentration of radioactivity in the aqueous humor [1, 3] [μg eq/g] | concentration of radioactivity in the cornea [1, 3] [μg eq/g] | concentration of radioactivity in the iris/ciliary body [1, 3] [μg eq/g] | concentration of radioactivity in the lens [1, 3] [μg eq/g] | concentration of radioactivity in the optic nerve [1, 3] [μg eq/g] | concentration of radioactivity in the retina-choroid plexus [1, 3] [μg eq/g] | concentration of radioactivity in the vitreous humor [1, 3] [μg eq/g] | tissues with the highest concentrations of radioactivity ([1]; one minute post dosing, intravitreal) | levels of total radioactivity in sampled ocular tissues, blood and plasma ([1]; single intravitreal dose, all sampled ocular tissues, blood and plasma) | severity of experimental autoimmune uveoretinitis [2]
1 | CC1(C)CC(O)CC(C)(C)N1O [Tempol-H, 1,4-dihydroxy-2,2,6,6-tetramethylpiperidine] | afforded no such protection | better anti-cataractogenic composition than the corresponding nitroxide | ~30±8 | ~2±0.1 | ~6±0.5 | ~41±6 | ~4±0.5 | ~18±2 | ~25±3 | retina-choroid plexus, vitreous humor and iris-ciliary body complex | Quantifiable levels of total radioactivity were observed in all sampled ocular tissues, blood and plasma | –
2 | CC1(C)CC(O)CC(C)(C)N1[O] [tempol, 4-hydroxy-2,2,6,6,-tetramethylpiperidine-1-N-oxyl] | – | – | – | – | – | – | – | – | – | – | – | reduced the severity
